Read-outs that look alike come from different tables or passages of the source.
System: UISO-MeI-2 cells
Format: cell-based

C[C@H]1CCC/C=C/[C@@H]2C[C@H](O)C[C@H]2[C@H](O)/C=C/C(=O)O1 [Brefeldin A]
Effect on uptake of azurin in UISO-MeI-2 cells: no significant effect

carbonyl cyanide m-chlorophrnylhydrazone [CCCP]
Effect on uptake of azurin in UISO-MeI-2 cells (20 pM): significantly reduced

C=C1[C@@H](C)[C@H]2[C@H](Cc3ccccc3)NC(=O)[C@]23[C@H](OC(C)=O)/C=C/[C@@](C)(O)C(=O)[C@@H](C)C/C=C/[C@H]3[C@@H]1O [cytochalasin D]
Effect on uptake of azurin in UISO-MeI-2 cells: significantly reduced

Source: US9161989B2, “Cupredoxin derived transport agents and methods of use thereof” (priority 2004, dated 2015)
